Consider 19 molecules from patent US20240425480A1, “NOVEL PYRIDINE DERIVATIVE COMPOUND AS RON INHIBITOR” (LG CHEM, LTD., priority 2021, published 2024).

The target in one experiment is RON (Homo sapiens, UniProt Q04912). In words: Inhibitory activity against RON, TR-FRET kinase assay. The conditions noted are these: TR-FRET enzyme assay. Format: biochemical. As to the method: In order to measure the inhibitory activity of each of the compounds of Examples against RON, the IC50 of each of the compounds was measured using Time-resolved fluorescence energy transfer (TR-FRET).
Specifically, the compound was prepared to a concentration of 1 mM in 100% DMSO and was diluted 10 times in a stepwise manner through 3-fold dilution. The compound (2 ul) diluted in a stepwise manner was added to a 96-well-plate containing 48 ul of a 1× kinase reaction buffer (50 mM HEPES (pH 7.4), 0.01% Tween-20, 5 mM DTT, 0.5 mM Na3VO4, 2 mM EGTA, 10 mM MgCl2).
The RON protein was diluted to a concentration of 49.3 nM in a RON storage buffer (50 mM Tris-HCl (pH 7.5), 150 mM NaCl, 0.5 mM EDTA, 0.02% Triton X-100), and then diluted again to a concentration of 0.4 nM in a 1×kinase reaction buffer. As a substrate cocktail, a RON-specific substrate mixed solution (40 uM ULight-labeled Poly GT, 100 nM ATP) was prepared at a concentration 2 times the final reaction concentration.
(§1) Thereafter, a 384-well-plate was prepared, and 2.5 μl of each of the diluted compounds of Examples was added to a corresponding well of experimental group wells, and 2.5 μl of a 4% DMSO solution was dispensed into high control wells and low control wells.
(§2) Thereafter, 2.5 μL of 0.4 nM RON was dispensed into each of the high control wells and the experimental group wells, and 2.5 μL of the 1× kinase reaction buffer was added to the low control wells, and all the wells were centrifuged at room temperature for 40 seconds at 1,000 RPM, and then incubated at room temperature for 20-30 minutes. Then, 5 μL of the substrate cocktail (2×) was dispensed into each well, and all the wells were centrifuged at room temperature for 40 seconds at 1,000 RPM, and then incubated at room temperature for 60 minutes. Thereafter, 5 μL of 30 mM EDTA was added to each well to terminate the reaction, and all the wells were then incubated again at room temperature for 5 minutes. Thereafter, 5 μL of a 4×phosphotyrosine antibody (Perkin Elmer) containing europium was added to each well, and all the wells were then incubated at room temperature for 60 minutes. After the incubation, the 384-well-plate was read with the Vison plate reader. In this case, the excitation wavelength was 340 nm, and the emission wavelength was 620 nm and 665 nm. The IC50 value of each compound of Examples was derived using the GraphPd Prism7 program.

In the next experiment the target is cMET (Homo sapiens, UniProt P08581). Nature of the experiment: Inhibitory activity against MET (cMET), TR-FRET kinase assay. In kind it is biochemical. The conditions noted are these: TR-FRET enzyme assay. How it is done: In addition, in order to measure the enzyme activity inhibition for cMET, the evaluation was performed in the same manner as the enzyme activity inhibition measurement experiment for RON.
Specifically, the compound was prepared to a concentration of 1 mM in 100% DMSO and was diluted 10 times in a stepwise manner through 3-fold dilution. The compound (2 ul) diluted in a stepwise manner was added to a 96-well-plate containing 48 ul of a 1×kinase reaction buffer (50 mM HEPES (pH 7.4), 0.05% BSA, 0.005% Tween-20, 1 mM DTT, 0.5 mM MnCl2, 20 mM MgCl2).
The cMET protein was diluted to a concentration of 263 nM in a cMET storage buffer (50 mM Tris-HCl (pH 7.5), 150 mM NaCl, 0.05% Brij35, 1 mM DTT, 10% Glycerol), and then diluted again to a concentration of 2 nM in a 1×kinase reaction buffer. As a substrate cocktail, a MET-specific substrate mixed solution (5 uM TK peptide, 10 mM ATP) was prepared at a concentration 2 times the final reaction concentration.
as §1
as §2, with “of 2” for “of 0.4”, “nM cMET” for “nM RON”, “of 90” for “of 30”, “The […]” for “The IC50”
(In general: In TR-FRET formats the signal depends on donor and acceptor labels being close together.)

Sequence of RON (Q04912 25-1400, species assumed): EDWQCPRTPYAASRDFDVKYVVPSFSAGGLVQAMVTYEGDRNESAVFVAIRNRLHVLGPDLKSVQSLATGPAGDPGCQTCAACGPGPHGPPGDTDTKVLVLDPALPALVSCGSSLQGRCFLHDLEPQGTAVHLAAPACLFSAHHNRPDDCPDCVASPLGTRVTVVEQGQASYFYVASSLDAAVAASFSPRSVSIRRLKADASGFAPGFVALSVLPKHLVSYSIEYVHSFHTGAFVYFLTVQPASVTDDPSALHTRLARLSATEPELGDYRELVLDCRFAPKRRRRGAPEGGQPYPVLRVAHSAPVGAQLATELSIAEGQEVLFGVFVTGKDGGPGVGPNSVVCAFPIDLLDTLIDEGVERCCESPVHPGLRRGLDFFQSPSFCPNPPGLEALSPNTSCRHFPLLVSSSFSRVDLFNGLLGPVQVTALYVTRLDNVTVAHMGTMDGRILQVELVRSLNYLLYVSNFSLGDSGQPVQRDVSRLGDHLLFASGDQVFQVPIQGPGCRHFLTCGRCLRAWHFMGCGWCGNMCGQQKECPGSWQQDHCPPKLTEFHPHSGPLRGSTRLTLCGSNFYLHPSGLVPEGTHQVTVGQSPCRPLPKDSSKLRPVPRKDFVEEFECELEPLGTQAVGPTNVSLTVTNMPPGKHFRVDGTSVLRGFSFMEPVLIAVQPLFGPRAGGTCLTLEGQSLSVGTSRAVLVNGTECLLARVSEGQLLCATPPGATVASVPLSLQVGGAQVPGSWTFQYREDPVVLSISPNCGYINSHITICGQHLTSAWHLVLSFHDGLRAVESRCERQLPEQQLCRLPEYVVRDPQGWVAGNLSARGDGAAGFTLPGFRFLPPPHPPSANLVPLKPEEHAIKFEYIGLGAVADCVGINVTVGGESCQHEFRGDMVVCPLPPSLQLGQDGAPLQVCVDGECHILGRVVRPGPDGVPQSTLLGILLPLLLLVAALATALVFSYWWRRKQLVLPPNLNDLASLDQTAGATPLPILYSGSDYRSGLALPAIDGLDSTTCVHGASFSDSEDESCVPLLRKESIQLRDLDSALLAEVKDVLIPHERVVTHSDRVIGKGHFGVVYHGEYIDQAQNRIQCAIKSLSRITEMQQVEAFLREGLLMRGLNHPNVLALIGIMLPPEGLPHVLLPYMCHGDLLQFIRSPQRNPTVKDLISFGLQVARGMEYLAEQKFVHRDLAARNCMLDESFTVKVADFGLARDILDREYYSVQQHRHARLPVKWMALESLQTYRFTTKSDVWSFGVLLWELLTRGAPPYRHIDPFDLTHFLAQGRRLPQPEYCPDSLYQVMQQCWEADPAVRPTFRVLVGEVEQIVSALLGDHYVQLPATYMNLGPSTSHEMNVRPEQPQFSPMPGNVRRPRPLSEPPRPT
Sequence of cMET (P08581 25-1390): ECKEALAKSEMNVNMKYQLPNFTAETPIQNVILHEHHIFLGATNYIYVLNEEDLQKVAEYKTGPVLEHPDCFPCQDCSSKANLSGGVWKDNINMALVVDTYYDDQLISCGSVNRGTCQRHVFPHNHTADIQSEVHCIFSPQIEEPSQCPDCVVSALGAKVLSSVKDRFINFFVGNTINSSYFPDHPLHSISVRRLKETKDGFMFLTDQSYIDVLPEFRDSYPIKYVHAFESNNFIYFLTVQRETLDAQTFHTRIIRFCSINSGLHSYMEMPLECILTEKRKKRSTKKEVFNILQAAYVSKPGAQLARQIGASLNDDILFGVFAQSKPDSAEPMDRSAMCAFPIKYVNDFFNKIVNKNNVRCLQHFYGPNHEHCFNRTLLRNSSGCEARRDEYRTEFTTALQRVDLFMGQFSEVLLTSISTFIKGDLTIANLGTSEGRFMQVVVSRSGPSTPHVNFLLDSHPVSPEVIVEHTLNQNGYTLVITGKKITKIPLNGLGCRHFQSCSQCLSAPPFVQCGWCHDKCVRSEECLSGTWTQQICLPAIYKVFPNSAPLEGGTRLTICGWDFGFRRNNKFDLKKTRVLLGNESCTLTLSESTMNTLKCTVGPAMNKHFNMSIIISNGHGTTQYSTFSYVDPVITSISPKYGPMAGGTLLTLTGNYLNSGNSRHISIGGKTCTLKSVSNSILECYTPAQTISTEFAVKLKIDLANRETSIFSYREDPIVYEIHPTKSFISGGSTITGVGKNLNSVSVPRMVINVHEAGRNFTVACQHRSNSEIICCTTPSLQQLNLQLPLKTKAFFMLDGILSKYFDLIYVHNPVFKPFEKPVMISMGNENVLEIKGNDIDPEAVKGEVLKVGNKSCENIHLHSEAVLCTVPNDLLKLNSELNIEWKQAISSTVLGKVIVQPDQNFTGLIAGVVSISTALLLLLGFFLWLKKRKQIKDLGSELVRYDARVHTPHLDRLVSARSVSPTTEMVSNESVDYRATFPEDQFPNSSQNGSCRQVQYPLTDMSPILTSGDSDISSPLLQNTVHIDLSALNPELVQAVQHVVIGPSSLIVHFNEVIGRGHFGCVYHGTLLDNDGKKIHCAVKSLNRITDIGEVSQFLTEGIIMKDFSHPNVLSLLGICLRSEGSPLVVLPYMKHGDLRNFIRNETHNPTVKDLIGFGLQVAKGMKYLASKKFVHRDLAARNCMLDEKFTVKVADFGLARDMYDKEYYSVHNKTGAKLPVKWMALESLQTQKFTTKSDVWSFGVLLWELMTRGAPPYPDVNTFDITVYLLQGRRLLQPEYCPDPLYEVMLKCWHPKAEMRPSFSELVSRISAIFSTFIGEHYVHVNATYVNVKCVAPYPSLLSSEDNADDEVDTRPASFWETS

As to `CCOc1cccnc1-n1ncc(C(=O)Nc2ccc(Oc3ccnc(N)c3Cl)c(F)c2)c1C(F)(F)F` [Example 24, N-(4-((2-amino-3-chloropyridin-4-yl)oxy)-3-fluorophenyl)-1-(3-ethoxypyridin-2-yl)-5-(trifluoromethyl)-1H-pyrazole-4-carboxamide], the IC50 (commonly the concentration that gives 50% inhibition) against RON was in the range of 50 to 500 nM; against cMET it was 500 to 5000 nM.

Regarding `Nc1nccc(Oc2ccc(NC(=O)c3cnn(-c4ncc(F)cn4)c3C(F)(F)F)cc2F)c1Cl` [Example 26, N-(4-((2-amino-3-chloropyridin-4-yl)oxy)-3-fluorophenyl)-1-(5-fluoropyrimidin-2-yl)-5-(trifluoromethyl)-1H-pyrazole-4-carboxamide], the results for the IC50 against RON and against cMET were 50 to 500 nM and greater than 5000 nM, respectively.

For `CCc1c(C(=O)Nc2ccc(Oc3ccnc(N)c3Cl)c(F)c2)cnn1-c1cccnc1` [Example 5, N-(4-((2-amino-3-chloropyridin-4-yl)oxy)-3-fluorophenyl)-5-ethyl-1-(pyridin-3-yl)-1H-pyrazole-4-carboxamide], the IC50 at RON was in the range of 50 to 500 nM; against cMET, 500 to 5000 nM.

`Nc1ncnc(Oc2ccc(NC(=O)c3nc(-c4ccccc4)cs3)cc2F)c1Cl` [Example 41, N-[4-(6-amino-5-chloro-pyrimidin-4-yl)oxy-3-fluoro-phenyl]-4-phenyl-thiazole-2-carboxamide]: the IC50 at RON and against cMET was greater than 5000 nM throughout.

On to `Nc1nccc(Oc2ccc(NC(=O)c3cnn(-c4ncc(F)cc4F)c3C(F)(F)F)cc2F)c1Cl` [Example 29, N-(4-((2-amino-3-chloropyridin-4-yl)oxy)-3-fluorophenyl)-1-(3,5-difluoropyridin-2-yl)-5-(trifluoromethyl)-1H-pyrazole-4-carboxamide], for which the IC50 against RON is less than 50 nM; against cMET it was greater than 5000 nM.

With `Nc1nccc(Oc2ccc(NC(=O)c3cnn(-c4ncccc4F)c3C(F)(F)F)cc2F)c1I` [Example 28, N-(4-((2-amino-3-iodopyridin-4-yl)oxy)-3-fluorophenyl)-1-(3-fluoropyridin-2-yl)-5-(trifluoromethyl)-1H-pyrazole-4-carboxamide], the values for the IC50 on RON and on cMET were less than 50 nM and 500 to 5000 nM, respectively.

On to `Nc1nccc(Oc2ccc(NC(=O)c3cnn(-c4ccncn4)c3C(F)(F)F)cc2F)c1Cl` [Example 22, N-(4-((2-amino-3-chloropyridin-4-yl)oxy)-3-fluorophenyl)-1-(pyrimidin-4-yl)-5-(trifluoromethyl)-1H-pyrazole-4-carboxamide], for which the IC50 at RON is 50 to 500 nM; on cMET, greater than 5000 nM.

Regarding `Nc1ncnc(Oc2ccc(NC(=O)c3cnn(-c4ncccn4)c3C(F)(F)F)cc2F)c1Cl` [Example 59, N-[4-(6-amino-5-chloro-pyrimidin-4-yl)oxy-3-fluoro-phenyl]-1-pyrimidin-2-yl-5-(trifluoromethyl)pyrazole-4-carboxamide], the figures for the IC50 against RON and against cMET were less than 50 nM and greater than 5000 nM, respectively.

Consider `Cc1ccnc(-n2ncc(C(=O)Nc3ccc(Oc4ccnc(N)c4Cl)c(F)c3)c2C(F)(F)F)c1` [Example 12, N-(4-((2-amino-3-chloropyridin-4-yl)oxy)-3-fluorophenyl)-1-(4-methylpyridin-2-yl)-5-(trifluoromethyl)-1H-pyrazole-4-carboxamide], for which the results for the IC50 on RON and at cMET were 50 to 500 nM and 500 to 5000 nM, respectively.

Take `Nc1ncnc(Oc2ccc(NC(=O)c3cnn(-c4ncccc4Cl)c3C(F)(F)F)cc2F)c1Cl` [Example 51, N-[4-(6-amino-5-chloro-pyrimidin-4-yl)oxy-3-fluoro-phenyl]-1-(3-chloro-2-pyridyl)-5-(trifluoromethyl)pyrazole-4-carboxamide]: the IC50 was less than 50 nM at RON and 500 to 5000 nM against cMET.

Consider `Cc1cccc(-n2ncc(C(=O)Nc3ccc(Oc4ncnc(N)c4Cl)c(F)c3)c2C(F)(F)F)n1` [Example 49, N-[4-(6-amino-5-chloro-pyrimidin-4-yl)oxy-3-fluoro-phenyl]-1-(6-methyl-2-pyridyl)-5-(trifluoromethyl)pyrazole-4-carboxamide], for which the IC50 at RON was 500 to 5000 nM; against cMET it was greater than 5000 nM.

In the case of `Nc1nccc(Oc2ccc(NC(=O)c3cnn(-c4cccnn4)c3C(F)(F)F)cc2F)c1Cl` [Example 20, N-(4-((2-amino-3-chloropyridin-4-yl)oxy)-3-fluorophenyl)-1-(pyridazin-3-yl)-5-(trifluoromethyl)-1H-pyrazole-4-carboxamide], the values for the IC50 against RON and on cMET were less than 50 nM and 500 to 5000 nM, respectively.

Consider `Cc1ccc(-n2ncc(C(=O)Nc3ccc(Oc4ncnc(N)c4Cl)c(F)c3)c2C(F)(F)F)nc1` [Example 48, N-[4-(6-amino-5-chloro-pyrimidin-4-yl)oxy-3-fluoro-phenyl]-1-(5-methyl-2-pyridyl)-5-(trifluoromethyl)pyrazole-4-carboxamide], for which the IC50 was 500 to 5000 nM at RON and greater than 5000 nM on cMET.

In the case of `Nc1ncnc(Oc2ccc(NC(=O)c3cnn(-c4cc(Cl)ccn4)c3C(F)(F)F)cc2F)c1Cl` [Example 52, N-[4-(6-amino-5-chloro-pyrimidin-4-yl)oxy-3-fluoro-phenyl]-1-(4-chloro-2-pyridyl)-5-(trifluoromethyl)pyrazole-4-carboxamide], the IC50 on RON was 500 to 5000 nM; against cMET it was greater than 5000 nM.

For the molecule `CCc1cccnc1-n1ncc(C(=O)Nc2ccc(Oc3ncnc(N)c3Cl)c(F)c2)c1C(F)(F)F` [Example 58, N-[4-(6-amino-5-chloro-pyrimidin-4-yl)oxy-3-fluoro-phenyl]-1-(3-ethyl-2-pyridyl)-5-(trifluoromethyl)pyrazole-4-carboxamide], the IC50 on RON was 50 to 500 nM; against cMET, greater than 5000 nM.

`Nc1nccc(Oc2ccc(NC(=O)c3cnn(-c4ccc(F)nn4)c3C(F)(F)F)cc2F)c1Cl` [Example 30, N-(4-((2-amino-3-chloropyridin-4-yl)oxy)-3-fluorophenyl)-1-(6-fluoropyridazin-3-yl)-5-(trifluoromethyl)-1H-pyrazole-4-carboxamide]: the values for the IC50 at RON and against cMET were 500 to 5000 nM and greater than 5000 nM, respectively.

As to `Nc1ncnc(Oc2ccc(NC(=O)c3cnn(-c4ccc(F)cn4)c3C(F)(F)F)cc2F)c1Cl` [Example 50, N-[4-(6-amino-5-chloro-pyrimidin-4-yl)oxy-3-fluoro-phenyl]-1-(5-fluoro-2-pyridyl)-5-(trifluoromethyl)pyrazole-4-carboxamide], the IC50 against RON is 50 to 500 nM; against cMET, greater than 5000 nM.

Turning to `Nc1ncnc(Oc2ccc(NC(=O)c3cnn(-c4cccnn4)c3C(F)(F)F)cc2F)c1Cl` [Example 60, N-[4-(6-amino-5-chloro-pyrimidin-4-yl)oxy-3-fluoro-phenyl]-1-pyridazin-3-yl-5-(trifluoromethyl)pyrazole-4-carboxamide], the IC50 against RON is 50 to 500 nM; against cMET it was greater than 5000 nM.

Consider `Nc1nccc(Oc2ccc(NC(=O)c3cnn(-c4cc(F)ccn4)c3C(F)(F)F)cc2F)c1Cl` [Example 25, N-(4-((2-amino-3-chloropyridin-4-yl)oxy)-3-fluorophenyl)-1-(4-fluoropyridin-2-yl)-5-(trifluoromethyl)-1H-pyrazole-4-carboxamide], for which the IC50 against RON was less than 50 nM; against cMET, greater than 5000 nM.
